Tests used:
Format in all cases: cell-based
HepG2 [1] = assay: ApoTox-Glo Triplex assay (live-dead ratio), HepG2; conditions: Homo sapiens, 48 h, HepG2, 2-day incubation
Experimental: The effects of test compounds on cell viability and apoptosis are determined using the ApoTox-Glo Triplex assay kit (Promega G6320) according to the following protocol. The human cancer cell line (e.g., HepG2) and a non-cancer human cell line (e.g., HEK-293), are seeded at 20,000 cells per well in a 96-well plate. After 1 day, the cells are treated with test compounds at various final concentrations (e.g., 10 nM, 31.6 nM, 100 nM, 316 nM, 1 μM, 3.16 μM, 10 μM, 20 μM, etc.). After a 2-day incubation period, the ApoTox-Glo Triplex assay is performed according to the kit manufacturer's protocol. […] After incubation for 30 minutes at 37° C., the fluorescence signal is measured at two wavelength sets (400Ex/505Em) and (485Ex/520Em) to assess live-cell protease activity and dead-cell protease activity respectively. […] After incubation for 30 minutes at room temperature, the luminescent signal is measured using a microplate reader. […]
The cytotoxic effect of test compounds according to the ApoTox-Glo Triplex assay is calculated as follows. The live-dead ratio is calculated by dividing the fluorescence signal for live-cell protease activity with the fluorescence signal for dead-cell protease activity. […]

HepG2 [2] = assay: CCK-8 cell viability assay, HepG2; conditions: Homo sapiens; CCK-8, HepG2, 2-day or 3-day incubation, cytotoxic effect
Experimental: The effect of test compounds on cell viability is determined using the CCK-8 assay kit (Dojindo CK04-1000) according to the following protocol. The human cancer cell lines (e.g., A549, HepG2, JeKo-1, MDA-MB-231, etc.) and non-cancer human cell lines (e.g., HEK-293, HaCaT, etc.), are seeded at 20,000 cells per well in a 96-well plate. After 1 day, the cells are treated with test compounds at various final concentrations (e.g., 10 nM, 31.6 nM, 100 nM, 316 nM, 1 μM, 3.16 μM, 10 μM, 20 μM, etc.). After a 2-day or 3-day incubation period, 10 μL of CCK-8 solution, which contains the WST-8 dye, is added to each well according to the kit manufacturer's protocol. After incubation for 1-4 hours, the absorbance at 450 nm is measured using a microplate reader. The absorbance at 450 nm measures the amount of WST-8 that is reduced to WST-8 formazan by cellular dehydrogenases, which is directly proportional to the number of living cells. The cytotoxic effect of test compounds at different concentrations is calculated by subtracting from 1 the ratio of absorbance of the compound-treated sample at 450 nm to that of the no-compound, solvent only (DMSO)-treated sample. […] The IC50 values for the cytotoxic effect of each test compound in A549, HepG2, JeKo-1, and/or MDA-MB-231 cells are determined by plotting a dose-response curve to calculate the concentration of test compound that produces half of the maximum cytotoxic effect.

MYC protein = assay: Western blot of MYC protein in human cancer cell lines; conditions: about 1 μM, 2-day incubation, e.g., A549 or HepG2, GAPDH loading control, vs DMSO
Experimental: The level of reduction of MYC protein following treatment with test compounds is also assessed by Western blot according to the following protocol. The human cancer cell lines (e.g., A549 or HepG2) are seeded at 20,000 cells per well in a 96-well plate. After 1 day, the cells are treated with test compounds at a final concentration of about 1 μM. After a 2-day incubation period, the supernatant is removed from the wells and RIPA buffer is added to create cell lysates. The lysates are analyzed by Western blot and probed with a MYC-specific antibody (e.g., Proteintech 10828-1-AP) together with a GAPDH-specific antibody (e.g., Proteintech 10494-1-AP) to serve as loading control. The intensities of Western blot bands are quantified by FIJI (Image J). The relative expression value of MYC following treatment with a test compound is calculated by dividing the intensity of the MYC band of the sample with the intensity of its own GAPDH band. The value so obtained is presented as a percentage of that of the no-compound, solvent only (DMSO)-treated sample. A lower percentage of MYC protein in a sample with respect to the DMSO-treated sample indicates greater percentage reduction in MYC protein level due to the test compound, and vice versa.

HEK-293 = assay: CellTiter-Glo 2.0 cell viability assay, HEK-293; conditions: Homo sapiens, HEK293, 48 h; CellTiter-Glo 2.0, HEK-293, 2-day incubation
Experimental: The effect of test compounds on cell viability is also determined using the CellTiter-Glo 2.0 assay kit (Promega G9241) according to the following protocol. The human cancer cell line (e.g., HepG2) and a non-cancer human cell line (e.g., HEK-293), are seeded at 20,000 cells per well in a 96-well plate. After 1 day, the cells are treated with test compounds at various concentrations (e.g., 10 nM, 31.6 nM, 100 nM, 316 nM, 1 μM, 3.16 μM, 10 μM, 20 μM, etc.). After a 2-day incubation period, the CellTiter-Glo 2.0 assay is performed according to the kit manufacturer's protocol. […] The contents are mixed for 2 minutes on an orbital shaker to induce cell lysis, and incubated for 10 minutes at room temperature, following which the luminescent signal is measured using a microplate reader. […] The cytotoxic effect of test compounds at different concentrations is calculated by subtracting from 1 the ratio of the luminescence signal of the compound-treated sample to that of the no-compound, solvent only (DMSO)-treated sample. […] The IC50 values for the cytotoxic effect of each test compound in HepG2 cells are determined by plotting a dose-response curve to calculate the concentration of test compound that produces half of the maximum cytotoxic effect. […]

A549 = assay: CCK-8 cell viability assay, A549; conditions: Homo sapiens; CCK-8, A549, 2-day or 3-day incubation, cytotoxic effect
Experimental: The effect of test compounds on cell viability is determined using the CCK-8 assay kit (Dojindo CK04-1000) according to the following protocol. The human cancer cell lines (e.g., A549, HepG2, JeKo-1, MDA-MB-231, etc.) and non-cancer human cell lines (e.g., HEK-293, HaCaT, etc.), are seeded at 20,000 cells per well in a 96-well plate. After 1 day, the cells are treated with test compounds at various final concentrations (e.g., 10 nM, 31.6 nM, 100 nM, 316 nM, 1 μM, 3.16 μM, 10 μM, 20 μM, etc.). After a 2-day or 3-day incubation period, 10 μL of CCK-8 solution, which contains the WST-8 dye, is added to each well according to the kit manufacturer's protocol. After incubation for 1-4 hours, the absorbance at 450 nm is measured using a microplate reader. The absorbance at 450 nm measures the amount of WST-8 that is reduced to WST-8 formazan by cellular dehydrogenases, which is directly proportional to the number of living cells. The cytotoxic effect of test compounds at different concentrations is calculated by subtracting from 1 the ratio of absorbance of the compound-treated sample at 450 nm to that of the no-compound, solvent only (DMSO)-treated sample. […]

With `Cc1nc(C)c(-c2ccc(=O)n(CC3CCN(c4ncnc5ncccc45)CC3)n2)s1` [6-(2,4-dimethylthiazol-5-yl)-2-((1-(pyrido[2,3-d]pyrimidin-4-yl)piperidin-4-yl)methyl)pyridazin-3(2H)-one] the IC50 (HepG2 [1]) was 100 nM, the IC50 (HepG2 [2]) was 300 nM and the “% reduction of MYC protein” value (MYC protein) was 67%. The IC50 (HEK-293) was 72900 nM and the IC50 (A549) was 1300 nM.

Source: US20250368623A1, “PYRIDAZINONE-DERIVED COMPOUNDS FOR THE MODULATION OF MYC AND FOR MEDICAL USES” (GENETIC INTELLIGENCE, INC, priority 2022, published 2025)
